PubChem BioAssay AID330 (DTP/NCI, 2004)
Where “and” joins values, the source holds several entries; their conditions need not be identical. Identical values can stand only once. Toxic doses and inconclusive results are not listed.

Tested on: P388 leukemia ip, CD2F1 mice, survival T/C
Assay: NCI In Vivo Anticancer Drug Screen. Data for tumor model P388 Leukemia (intraperitoneal) in CD2F1 (CDF1) mice
Settings: endpoint: median survival time, higher = longer survival
In short: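 Mice carrying the transplanted tumor received test compound or vehicle. Survival was recorded in each group, and the value is the treated-group measurement divided by that of the vehicle-treated control group.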

## COc1cc(NCc2ccc3nc(N)nc(N)c3c2C)cc(OC)c1OC
dose: 1.56 mg/kg/injection, schedule: Q01DX009 (ip), vehicle: Klucel (hydroxypropylcellulose) (HPC)
  T/C: 112 % of control
dose: 1.56 mg/kg/injection, schedule: Q01DX009 (ip), vehicle: clinical formulation
  T/C: 111 % of control
dose: 1.88 mg/kg/injection, schedule: Q01DX005 (ip), vehicle: Klucel (hydroxypropylcellulose) (HPC)
  T/C: 121 % of control
dose: 1.88 mg/kg/injection, schedule: Q01DX005 (ip), vehicle: clinical formulation
  T/C: 102 % of control
dose: 1.88 mg/kg/injection, schedule: Q01DX005 (iv), vehicle: clinical formulation
  T/C: 102 % of control
dose: 2.1 mg/kg/injection, schedule: Q01DX009 (ip), vehicle: water
  T/C: 116 % of control
dose: 2.5 mg/kg/injection, schedule: Q01DX009 (ip), vehicle: sodium bicarbonate
  T/C: 124 % of control
dose: 2.52 mg/kg/injection, schedule: Q01DX005 (iv), vehicle: water
  T/C: 103 % of control
dose: 3.12 mg/kg/injection, schedule: Q01DX009 (ip), vehicle: Klucel (hydroxypropylcellulose) (HPC)
  T/C: 124 % of control
dose: 3.12 mg/kg/injection, schedule: Q01DX009 (ip), vehicle: clinical formulation
  T/C: 109 % of control
dose: 3.75 mg/kg/injection, schedule: Q01DX005 (ip), vehicle: Klucel (hydroxypropylcellulose) (HPC)
  T/C: 124 % of control
dose: 3.75 mg/kg/injection, schedule: Q01DX005 (ip), vehicle: clinical formulation
  T/C: 100 % of control
dose: 3.75 mg/kg/injection, schedule: Q01DX005 (iv), vehicle: clinical formulation
  T/C: 103 % of control
dose: 4.19 mg/kg/injection, schedule: Q01DX009 (ip), vehicle: water
  T/C: 120 % of control
dose: 5.0 mg/kg/injection, schedule: Q01DX009 (ip), vehicle: sodium bicarbonate
  T/C: 154 % of control
dose: 5.03 mg/kg/injection, schedule: Q01DX005 (iv), vehicle: water
  T/C: 101 % of control
dose: 6.25 mg/kg/injection, schedule: Q01DX009 (ip), vehicle: clinical formulation
  T/C: 109 % of control
dose: 7.2 mg/kg/injection, schedule: Q01DX009 (ip), vehicle: Klucel (hydroxypropylcellulose) (HPC)
  T/C: 154 % of control
dose: 7.5 mg/kg/injection, schedule: Q01DX005 (ip), vehicle: clinical formulation
  T/C: 100 % of control
dose: 7.5 mg/kg/injection, schedule: Q01DX005 (ip), vehicle: water
  T/C: 123 % of control
dose: 7.5 mg/kg/injection, schedule: Q01DX005 (iv), vehicle: clinical formulation
  T/C: 106 % of control
dose: 7.5 mg/kg/injection, schedule: Q01DX005 (iv), vehicle: water
  T/C: 117 % of control
dose: 7.5 mg/kg/injection, schedule: Q03HX008 (ip), vehicle: water
  T/C: 124 % of control
dose: 7.5 mg/kg/injection, schedule: Q03HX024 (ip), vehicle: water
  T/C: 184 % of control
dose: 8.64 mg/kg/injection, schedule: Q01DX009 (ip), vehicle: Klucel (hydroxypropylcellulose) (HPC)
  T/C: 157 % of control
dose: 10.0 mg/kg/injection, schedule: Q01DX005 (ip), vehicle: Klucel (hydroxypropylcellulose) (HPC)
  T/C: 171 % of control
dose: 10.0 mg/kg/injection, schedule: Q01DX009 (ip), vehicle: sodium bicarbonate
  T/C: 171 % of control and 174 % of control
dose: 10.1 mg/kg/injection, schedule: Q01DX005 (iv), vehicle: water
  T/C: 106 % of control
dose: 12.0 mg/kg/injection, schedule: Q01DX009 (ip), vehicle: Klucel (hydroxypropylcellulose) (HPC)
  T/C: 173 % of control
dose: 12.0 mg/kg/injection, schedule: Q03HX006 (ip), vehicle: Klucel (hydroxypropylcellulose) (HPC)
  T/C: 150 % of control
dose: 12.5 mg/kg/injection, schedule: Q01DX009 (ip), vehicle: Klucel (hydroxypropylcellulose) (HPC)
  T/C: 172 % of control
dose: 12.5 mg/kg/injection, schedule: Q01DX009 (ip), vehicle: clinical formulation
  T/C: 111 % of control
dose: 12.5 mg/kg/injection, schedule: Q01DX009 (oral), vehicle: sodium bicarbonate
  T/C: 110 % of control and 111 % of control
dose: 12.5 mg/kg/injection, schedule: Q04DX003 (ip), vehicle: Klucel (hydroxypropylcellulose) (HPC)
  T/C: 180 % of control
dose: 13.0 mg/kg/injection, schedule: Q04DX002 (ip), vehicle: Klucel (hydroxypropylcellulose) (HPC)
  T/C: 120 % of control
dose: 14.4 mg/kg/injection, schedule: Q01DX009 (ip), vehicle: Klucel (hydroxypropylcellulose) (HPC)
  T/C: 175 % of control
dose: 15.0 mg/kg/injection, schedule: Q01DX005 (ip), vehicle: Klucel (hydroxypropylcellulose) (HPC)
  T/C: 152 % of control
dose: 15.0 mg/kg/injection, schedule: Q01DX005 (ip), vehicle: clinical formulation
  T/C: 103 % of control
dose: 15.0 mg/kg/injection, schedule: Q01DX005 (iv), vehicle: clinical formulation
  T/C: 102 % of control
dose: 15.0 mg/kg/injection, schedule: Q01DX005 (oral), vehicle: water
  T/C: 112 % of control
dose: 15.0 mg/kg/injection, schedule: Q01DX009 (ip), vehicle: water
  T/C: 153 % of control
dose: 16.8 mg/kg/injection, schedule: Q01DX009 (ip), vehicle: water
  T/C: 170 % of control
dose: 20.0 mg/kg/injection, schedule: Q01DX005 (ip), vehicle: Klucel (hydroxypropylcellulose) (HPC)
  T/C: 202 % of control
dose: 20.0 mg/kg/injection, schedule: Q01DX009 (ip), vehicle: Klucel (hydroxypropylcellulose) (HPC)
  T/C: 207 % of control
dose: 20.0 mg/kg/injection, schedule: Q01DX009 (ip), vehicle: sodium bicarbonate
  T/C: 174 % of control and 222 % of control
dose: 20.0 mg/kg/injection, schedule: Q03HX006 (ip), vehicle: Klucel (hydroxypropylcellulose) (HPC)
  T/C: 154 % of control
dose: 20.1 mg/kg/injection, schedule: Q01DX005 (iv), vehicle: water
  T/C: 120 % of control
dose: 21.6 mg/kg/injection, schedule: Q01DX005 (ip), vehicle: Klucel (hydroxypropylcellulose) (HPC)
  T/C: 152 % of control
dose: 24.0 mg/kg/injection, schedule: Q01DX009 (ip), vehicle: Klucel (hydroxypropylcellulose) (HPC)
  T/C: 181 % of control
dose: 25.0 mg/kg/injection, schedule: Q01DX009 (ip), vehicle: Klucel (hydroxypropylcellulose) (HPC)
  T/C: 200 % of control
dose: 25.0 mg/kg/injection, schedule: Q01DX009 (ip), vehicle: clinical formulation
  T/C: 109 % of control
dose: 25.0 mg/kg/injection, schedule: Q01DX009 (oral), vehicle: sodium bicarbonate
  T/C: 112 % of control
dose: 25.0 mg/kg/injection, schedule: Q04DX003 (ip), vehicle: Klucel (hydroxypropylcellulose) (HPC)
  T/C: 192 % of control
dose: 30.0 mg/kg/injection, schedule: Q01DX001 (ip), vehicle: water
  T/C: 108 % of control
dose: 30.0 mg/kg/injection, schedule: Q01DX001 (iv), vehicle: water
  T/C: 111 % of control
dose: 30.0 mg/kg/injection, schedule: Q01DX005 (ip), vehicle: Klucel (hydroxypropylcellulose) (HPC)
  T/C: 189 % of control
dose: 30.0 mg/kg/injection, schedule: Q01DX005 (ip), vehicle: clinical formulation
  T/C: 100 % of control
dose: 30.0 mg/kg/injection, schedule: Q01DX005 (iv), vehicle: clinical formulation
  T/C: 105 % of control
dose: 30.0 mg/kg/injection, schedule: Q01DX009 (ip), vehicle: water
  T/C: 170 % of control
dose: 30.0 mg/kg/injection, schedule: Q01DX009 (oral), vehicle: water
  T/C: 161 % of control
dose: 30.0 mg/kg/injection, schedule: Q04DX003 (ip), vehicle: water
  T/C: 123 % of control
dose: 33.3 mg/kg/injection, schedule: Q01DX009 (ip), vehicle: Klucel (hydroxypropylcellulose) (HPC)
  T/C: 218 % of control
dose: 33.3 mg/kg/injection, schedule: Q03HX006 (ip), vehicle: Klucel (hydroxypropylcellulose) (HPC)
  T/C: 159 % of control
dose: 33.6 mg/kg/injection, schedule: Q01DX009 (ip), vehicle: water
  T/C: 175 % of control
dose: 36.0 mg/kg/injection, schedule: Q01DX005 (ip), vehicle: Klucel (hydroxypropylcellulose) (HPC)
  T/C: 195 % of control
dose: 40.0 mg/kg/injection, schedule: Q01DX005 (ip), vehicle: Klucel (hydroxypropylcellulose) (HPC)
  T/C: 240 % of control
dose: 40.0 mg/kg/injection, schedule: Q01DX009 (ip), vehicle: Klucel (hydroxypropylcellulose) (HPC)
  T/C: 102 % of control
dose: 40.0 mg/kg/injection, schedule: Q01DX009 (ip), vehicle: sodium bicarbonate
  T/C: 242 % of control and 91 % of control
dose: 50.0 mg/kg/injection, schedule: Q01DX009 (ip), vehicle: Klucel (hydroxypropylcellulose) (HPC)
  T/C: 225 % of control
dose: 50.0 mg/kg/injection, schedule: Q01DX009 (ip), vehicle: clinical formulation
  T/C: 118 % of control
dose: 50.0 mg/kg/injection, schedule: Q01DX009 (oral), vehicle: sodium bicarbonate
  T/C: 191 % of control
dose: 50.0 mg/kg/injection, schedule: Q04DX003 (ip), vehicle: Klucel (hydroxypropylcellulose) (HPC)
  T/C: 201 % of control
dose: 60.0 mg/kg/injection, schedule: Q01DX001 (ip), vehicle: water
  T/C: 104 % of control
dose: 60.0 mg/kg/injection, schedule: Q01DX001 (iv), vehicle: water
  T/C: 113 % of control
dose: 60.0 mg/kg/injection, schedule: Q01DX001 (oral), vehicle: water
  T/C: 120 % of control
dose: 60.0 mg/kg/injection, schedule: Q01DX005 (ip), vehicle: Klucel (hydroxypropylcellulose) (HPC)
  T/C: 176 % of control and 198 % of control
dose: 60.0 mg/kg/injection, schedule: Q01DX005 (ip), vehicle: clinical formulation
  T/C: 100 % of control
dose: 60.0 mg/kg/injection, schedule: Q01DX005 (oral), vehicle: water
  T/C: 153 % of control
dose: 60.0 mg/kg/injection, schedule: Q01DX009 (ip), vehicle: water
  T/C: 170 % of control
dose: 60.0 mg/kg/injection, schedule: Q03HX008 (ip), vehicle: water
  T/C: 120 % of control
dose: 60.0 mg/kg/injection, schedule: Q03HX024 (ip), vehicle: water
  T/C: 115 % of control
dose: 60.0 mg/kg/injection, schedule: Q04DX002 (ip), vehicle: Klucel (hydroxypropylcellulose) (HPC)
  T/C: 151 % of control
dose: 60.0 mg/kg/injection, schedule: Q04DX003 (ip), vehicle: water
  T/C: 115 % of control
dose: 80.0 mg/kg/injection, schedule: Q01DX005 (ip), vehicle: Klucel (hydroxypropylcellulose) (HPC)
  T/C: 96 % of control
dose: 100.0 mg/kg/injection, schedule: Q01DX005 (ip), vehicle: Klucel (hydroxypropylcellulose) (HPC)
  T/C: 116 % of control
dose: 100.0 mg/kg/injection, schedule: Q01DX009 (oral), vehicle: sodium bicarbonate
  T/C: 94 % of control
dose: 100.0 mg/kg/injection, schedule: Q04DX002 (ip), vehicle: Klucel (hydroxypropylcellulose) (HPC)
  T/C: 211 % of control
dose: 100.0 mg/kg/injection, schedule: Q04DX003 (ip), vehicle: Klucel (hydroxypropylcellulose) (HPC)
  T/C: 230 % of control
dose: 120.0 mg/kg/injection, schedule: Q01DX001 (ip), vehicle: water
  T/C: 106 % of control
dose: 120.0 mg/kg/injection, schedule: Q01DX001 (oral), vehicle: water
  T/C: 115 % of control
dose: 120.0 mg/kg/injection, schedule: Q01DX005 (oral), vehicle: water
  T/C: 170 % of control
dose: 120.0 mg/kg/injection, schedule: Q04DX003 (ip), vehicle: water
  T/C: 118 % of control
dose: 200.0 mg/kg/injection, schedule: Q04DX003 (ip), vehicle: Klucel (hydroxypropylcellulose) (HPC)
  T/C: 103 % of control
dose: 240.0 mg/kg/injection, schedule: Q01DX001 (oral), vehicle: water
  T/C: 124 % of control
dose: 480.0 mg/kg/injection, schedule: Q01DX001 (oral), vehicle: water
  T/C: 157 % of control
